Series [1] concerns Enterococcus faecalis. In words: Antibacterial activity against Enterococcus faecalis ATCC 29212 assessed as diameter of inhibition at 30 ug/disk after 24 hrs by disk diffusion assay (reference value: 0 mm). The conditions noted are these: ATCC 29212, 24 h, read-out: DIZ. It is filed as functional. On the technique in general: A growth-free zone around the sample is the usual read-out of agar diffusion tests.

For series [2], the system named is Staphylococcus aureus. The series can be described thus: Antibacterial activity against Staphylococcus aureus ATCC 25923 assessed as diameter of inhibition at 30 ug/disk after 24 hrs by disk diffusion assay (reference value: 0 mm). The settings on record: ATCC 25923, 24 h, read-out: DIZ. It is filed as functional.
For series [3], the system named is Staphylococcus epidermidis. The series can be described thus: Antibacterial activity against Staphylococcus epidermidis ATCC 12228 assessed as diameter of inhibition at 30 ug/disk after 24 hrs by disk diffusion assay (reference value: 0 mm). It is filed as functional. The settings on record: ATCC 12228, 24 h, read-out: DIZ.
Series [4] deals with Staphylococcus simulans. The series can be described thus: Antibacterial activity against Staphylococcus simulans ATCC 27851 assessed as diameter of inhibition at 30 ug/disk after 24 hrs by disk diffusion assay (reference value: 0 mm). The conditions noted are these: ATCC 27851, 24 h, read-out: DIZ. It is filed as functional.
Series [5] relates to Staphylococcus aureus. In words: Antibacterial activity against methicillin-resistant Staphylococcus aureus BMB9393 assessed as diameter of inhibition at 30 ug/disk after 24 hrs by disk diffusion assay (reference value: 0 mm). In kind it is functional. The conditions noted are these: BMB9393, 24 h, read-out: DIZ.
For series [6], the system named is Enterobacter cloacae. In words: Antibacterial activity against Enterobacter cloacae ATCC 23355 assessed as diameter of inhibition at 30 ug/disk after 24 hrs by disk diffusion assay (reference value: 0 mm). The settings on record: ATCC 23355, 24 h, read-out: DIZ. It is filed as functional.
Series [7] concerns Pseudomonas aeruginosa. In words: Antibacterial activity against Pseudomonas aeruginosa ATCC 27853 assessed as diameter of inhibition at 30 ug/disk after 24 hrs by disk diffusion assay (reference value: 0 mm). It is filed as functional. The conditions noted are these: ATCC 27853, 24 h, read-out: DIZ.
The subject of series [8] is Proteus mirabilis. In words: Antibacterial activity against Proteus mirabilis ATCC 15290 assessed as diameter of inhibition at 30 ug/disk after 24 hrs by disk diffusion assay (reference value: 0 mm). In kind it is functional. The settings on record: ATCC 15290, 24 h, read-out: DIZ.
For series [9], the system named is Serratia marcescens. The series can be described thus: Antibacterial activity against Serratia marcescens ATCC 14756 assessed as diameter of inhibition at 30 ug/disk after 24 hrs by disk diffusion assay (reference value: 0 mm). It is filed as functional. The conditions noted are these: ATCC 14756, 24 h, read-out: DIZ.
The subject of series [10] is Klebsiella pneumoniae. In words: Antibacterial activity against Klebsiella pneumoniae ATCC 4352 assessed as diameter of inhibition at 30 ug/disk after 24 hrs by disk diffusion assay (reference value: 0 mm). It is filed as functional. The settings on record: ATCC 4352, 24 h, read-out: DIZ.
The subject of series [11] is Staphylococcus aureus. In words: Antibacterial activity against Staphylococcus aureus ATCC 25923 after 24 hrs by microdilution assay. The conditions noted are these: ATCC 25923, 24 h. It is filed as functional.
The subject of series [12] is Staphylococcus epidermidis. The series can be described thus: Antibacterial activity against Staphylococcus epidermidis ATCC 12228 after 24 hrs by microdilution assay. In kind it is functional. The settings on record: ATCC 12228, 24 h. (In general: Dilution methods test growth across graded concentrations, often in twofold steps.)
The subject of series [13] is Staphylococcus simulans. The series can be described thus: Antibacterial activity against Staphylococcus simulans ATCC 27851 after 24 hrs by microdilution assay. In kind it is functional. The conditions noted are these: ATCC 27851, 24 h.
Series [14] has as its system Staphylococcus aureus. The series can be described thus: Antibacterial activity against methicillin-resistant Staphylococcus aureus BMB9393 after 24 hrs by microdilution assay. In kind it is functional. The settings on record: BMB9393, 24 h.
Series [15] deals with Staphylococcus aureus. In words: Antibiofilm activity against methicillin-resistant Staphylococcus aureus BMB9393 at 1/2 and 1/4 MIC after 24 hrs by crystal violet based assay. In kind it is functional.
Series [16] can be described thus: (§1) Hemolytic activity in human erythrocytes at 10 to 200 ug/ml after 3 hrs relative to control. In kind it is ADME, cell-based, Erythrocyte. The conditions noted are these: erythrocytes, read-out: Activity.
Series [17] deals with Staphylococcus aureus. In words: Antibacterial activity against methicillin-resistant Staphylococcus aureus BMB9393 at 1/2 and 1/4 MIC after 24 hrs. It is filed as functional, organism-based.
Series [18] concerns Staphylococcus aureus. In words: Selectivity index, ratio of MIC for antibacterial activity against methicillin-resistant Staphylococcus aureus BMB9393 to MIC for antibacterial activity against Staphylococcus aureus ATCC 25923. In kind it is functional.
Series [19] is described as follows: Selectivity index, ratio of MIC for antibacterial activity against methicillin-resistant Staphylococcus aureus BMB9393 to MIC for antibacterial activity against Staphylococcus epidermidis ATCC 12228. In kind it is functional.
Series [20] is described as follows: Selectivity index, ratio of MIC for antibacterial activity against methicillin-resistant Staphylococcus aureus BMB9393 to MIC for antibacterial activity against Staphylococcus simulans ATCC 27851. In kind it is functional.
The subject of series [21] is Erythrocyte. Described as §1. It is filed as ADME, cell-based. The conditions noted are these: erythrocyte, 3 h.

The structures appear in SMILES notation. ≈ marks a conversion by molar mass, not a printed value. Calls of active or inactive are those of the source. Bounds are passed on as bounds.

As for `CCC(CC)(c1ccc(C/C(=N\O)c2cn(-c3ccc(Cl)cc3)nn2)[nH]1)c1ccc(C/C(=N\O)c2cn(-c3ccc(Cl)cc3)nn2)[nH]1`, the zone of inhibition at 30 µg/disc in [1], in [2], in [3], in [4], in [5] and in series [6] was 0 mm each time. Moreover, the zone of inhibition at 30 µg/disc in series [7], in series [8], in series [9] and in [10] was 0 mm each time.
Regarding `O/N=C(\Cc1ccc[nH]1)c1cn(-c2ccc(Cl)cc2)nn1`, the zone of inhibition at 30 µg/disc in series [1], in [2], in series [3], in [4], in [5] and in series [6] was 0 mm each time. The zone of inhibition at 30 µg/disc in series [7], in series [8], in series [9] and in series [10] was 0 mm each time.
On to `O/N=C(/CO/N=C(\Cc1c[nH]c2ccccc12)c1cn(-c2ccc(Cl)cc2)nn1)c1cn(-c2ccc(Cl)cc2)nn1`, for which the zone of inhibition at 30 µg/disc in series [1], in series [2], in [3], in series [4], in series [5] and in series [6] was 0 mm in each case. In addition, the zone of inhibition at 30 µg/disc in [7], in series [8], in [9] and in [10] was 0 mm in each case.
As for `O/N=C(\Cc1ccc[nH]1)c1cn(-c2ccccc2)nn1`, the zone of inhibition at 30 µg/disc in series [1], in [2], in [3], in [4], in series [5] and in [6] was 0 mm each time. For the same compound, the zone of inhibition at 30 µg/disc in series [7], in [8], in [9] and in [10] was 0 mm each time.
For the compound `O=[N+]([O-])c1ccc(-n2cc(/C(Cc3ccc[nH]3)=N/O)nn2)cc1`, the zone of inhibition at 30 µg/disc in series [1], in series [2], in series [3], in [4], in [5] and in series [6] was 0 mm throughout. Besides, the zone of inhibition at 30 µg/disc in [7], in series [8], in [9] and in series [10] was 0 mm each time.
In general, MIC refers to the smallest concentration in the dilution series that meets the test's criterion for growth inhibition. With `CCC(CC)(c1ccc[nH]1)c1ccc(C/C(=N\O)c2cn(-c3ccc(Cl)cc3)nn2)[nH]1`, the zone of inhibition at 30 µg/disc in [1] stood at 0 mm; in series [2], 11 mm; in series [3], 12 mm; in [4], 10 mm; in [5] it was 8 mm; in series [6], 0 mm. The zone of inhibition at 30 µg/disc in [7], in [8], in series [9] and in [10] was 0 mm throughout. The MIC in series [11] came out at 32 mg/L (≈ 73.2 µM); in [12] it was 32 mg/L (≈ 73.2 µM); in series [13], 32 mg/L (≈ 73.2 µM); in series [14], 256 mg/L (≈ 586 µM). In addition, the Activity in series [15] was 73 - 76%. Moreover, the hemolysis at 3 h in series [16] was less than 10%. Also, the result in series [17] was Active. Moreover, the “Selectivity Index” value in series [18], in [19] and in series [20] was 8 in each case.
Regarding `O=C(O)c1cn(C2CC2)c2cc(N3CCNCC3)c(F)cc2c1=O` [CIPROFLOXACIN], the zone of inhibition at 30 µg/disc in [7] was 37 mm; in series [8], 39 mm; in series [9] it was 29 mm; in series [10], 28 mm. The Activity result in [21] is “Non-Toxic”.
Consider `CC1(C)S[C@@H]2[C@H](NC(=O)Cc3ccccc3)C(=O)N2[C@H]1C(=O)O` [PENICILLIN G], for which, in [21], the Activity result is listed as “Non-Toxic”.
Turning to `CN[C@H](CC(C)C)C(=O)N[C@H]1C(=O)N[C@@H](CC(N)=O)C(=O)N[C@H]2C(=O)N[C@H]3C(=O)N[C@H](C(=O)N[C@H](C(=O)O)c4cc(O)cc(O)c4-c4cc3ccc4O)[C@H](O)c3ccc(c(Cl)c3)Oc3cc2cc(c3O[C@@H]2O[C@H](CO)[C@@H](O)[C@H](O)[C@H]2O[C@H]2C[C@](C)(N)[C@H](O)[C@H](C)O2)Oc2ccc(cc2Cl)[C@H]1O` [VANCOMYCIN], the zone of inhibition at 30 µg/disc came to 18 mm in series [1]; 15 mm in [2]; 17 mm in [3]; 20 mm in series [4]; 13 mm in series [5]. Also, the lowest concentration to inhibit growth in [13] (MIC) was 1 mg/L (≈ 0.69 µM). For the same compound, in series [15], the result was Active. Further, in series [21], the Activity result is “Non-Toxic”.
`COc1ccc(-n2cc(/C(Cc3ccc[nH]3)=N/O)nn2)cc1`: the zone of inhibition at 30 µg/disc in [1], in series [2], in [3], in series [4], in series [5] and in series [6] was 0 mm throughout. Besides, the zone of inhibition at 30 µg/disc in [7], in series [8], in series [9] and in series [10] was 0 mm each time.

The values above are taken from ChEMBL document CHEMBL4251596, “Hetero-Diels-Alder reactions of novel 3-triazolyl-nitrosoalkenes as an approach to functionalized 1,2,3-triazoles with antibacterial profile” (Eur J Med Chem, 2018).
